Source: patent publication US20190202774A1, “BIARYL COMPOUNDS AS ANTIMICROBIAL AND CHEMOTHERAPEUTIC AGENTS” (priority 2015, published 2019)
Converted amounts (≈) assume the structure as drawn. “Also recorded” adds a separate entry of the source. Read-outs that look alike come from different tables or passages of the source.

Legend:
[1] = tested on: erythrocytes from sheep blood; test: Hemolytic activity
Procedure: Toxicity of biaryl compounds was tested against erythrocytes as well as eukaryotic epithelial, dermal, and macrophage cell lines in vitro.
Toxicity of lead antimicrobial candidates was tested against erythrocytes, as well as eukaryotic epithelial and dermal cell lines in vitro.

[2] = tested on: human dermal fibroblasts (HDF)
Procedure: (§1) Finally, toxicity of biaryl compounds was tested against human lung airway epithelial cells (16HBE), human dermal fibroblasts, and J774.A1 murine macrophages using an ALAMARBLUE® Cell Viability Assay. Biaryl compounds, C58, acetylated C58 (C58-2), C59, C59-2, C59Na, and C59Li were incubated with cells for 24 hours and an ALAMARBLUE® Cell Viability Assay was performed to determine cell viability relative to untreated controls (FIGS. 13A-13C). Cell viability curves were analyzed using non-linear curve fit to yield the inhibitory concentration at median cell survival (LD50) for all cell lines (Table 3).
(§2) Next, the toxicity of lead candidates was tested against human lung airway epithelial cells (16HBE) and human dermal fibroblasts (HDF) using an alamarBlue® Cell Viability Assay.

[3] = tested on: human lung airway epithelial cells (16HBE)
Procedure: as §1, §2

[4] = tested on: MRSA strains SAD05 and 0632 in a biofilm; test: MBEC High-throughput biofilm assay; assay type: cell-based, Staphylococcus aureus; details: six-hour incubation, SAD05 and 0632
[5] = tested on: MRSA strain USA300; test: DiSC3(5) membrane permeabilization; assay type: cell-based, Staphylococcus aureus; details: 0.1 and 0.5 μg/mL
Procedure: Biaryl compounds and their analogues have been reported to be membrane active agents (Isnansetyo and Kamei, 2003 and Kamei et al., 2003). An experiment was performed to verify the membrane permeabilization activity of biaryl compound. C58 using a fluorescent dye, 3,3′-Dipropylthiacarbocyanine iodide (DiSC3(5)). The fluorescence signal from DiSC3(5) is in a quenched state when it interacts with the hydrophobic region of the cell membrane. Upon disruption of the membrane, DiSC3(5) is released and regains its fluorescent activity, which is measured as a fluorescence signal (RFU).

[6] = tested on: eukaryotic cell lines tested; test: ALAMARBLUE Cell Viability Assay, LD50 quoted in text (cell line not given); details: 24 hours; cell line not named in the sentence (Table 3 not given)
Procedure: as §1

[7] = tested on: E. faecalis strains 49532 and 51575; test: MIC/MBC broth microdilution against E. faecalis; assay type: cell-based, Enterococcus faecalis
[8] = tested on: R. equi strains 701+, 701−, 703, and 5331; test: MIC/MBC broth microdilution against R. equi; assay type: cell-based, Rhodococcus equi
[9] = tested on: 21 S. epidermidis strains; test: MIC90/MBC90 broth microdilution against 21 S. epidermidis strains; assay type: cell-based, Staphylococcus epidermidis
Text: We are currently in the process of evaluating the MICs and MBCs for 5-32.

[10] = tested on: MRSA SA LL06; test: Growth curves (OD650, 18-h), MRSA SA LL06; assay type: cell-based, Staphylococcus aureus; details: SA LL06, 18-h
[11] = tested on: A549; test: Lung cancer cell survival, A549; assay type: cell-based; details: 72 hour incubation, non-linear curve fit
Procedure: (§3) The IC50 values generated using a non-linear curve fit with lung cancer cell lines, A549, H460, H2122, and H2073 are listed in Table 10. Experiments were performed using C58, C58-2, C59, C59-2, C119, and acetylated C119 (C119-2). […] Additionally, these concentrations are clinically achievable for treatment of lung cancer and a detailed structure activity relationship experiments needs to be performed to identify promising anticancer candidates.

[12] = tested on: H460; test: Lung cancer cell survival, H460; assay type: cell-based; details: 72 hour incubation, non-linear curve fit
Procedure: as §3

[13] = tested on: H2122; test: Lung cancer cell survival, H2122; assay type: cell-based; details: 72 hour incubation, non-linear curve fit
Procedure: as §3

[14] = tested on: H2073; test: Lung cancer cell survival, H2073; assay type: cell-based; details: 72 hour incubation, non-linear curve fit
Procedure: as §3

[15] = tested on: 38 MRSA strains; test: microbe, parasite or virus in culture; details: Staphylococcus aureus
[16] = tested on: MRSA strains USA300, 0606, 0608, 0634, 0641, and 0646; test: MIC/MBC against six MRSA strains (variants of C58/C59, pH, DMSO); assay type: cell-based, Staphylococcus aureus
Procedure: Six MRSA strains, USA300, 0606, 0608, 0634, 0641, and 0646 were chosen based on their activity against biaryl compounds and vancomycin to determine structure-activity relationship of biaryl compounds. The effect of phenolic group on the activity of biaryl compounds was tested by modifying C59. First, the phenolic group was protected by acetylation to yield an acetylated C59 (C59-2) (FIG. 7B). Additional variants of C59, in the form of sodium and lithium salts were synthesized by incubation with sodium hydroxide and lithium hydroxide (FIGS. 7C and 7D). Antimicrobial activity of these deprotonated, water-soluble sodium (C59Na) and lithium (C59Li) salts, and acetylated derivative of C59 was tested against 6 MRSA strains and compared to the parent compound, C59 (FIGS. 8A-8D). Results from this comparative experiment indicate the contribution of phenolic group/phenoxide ion to the antimicrobial activity.
Further investigation into activity of these compounds under acidic pH conditions also points towards the role of phenolic group. An effective antimicrobial should be active under a wide range of pH conditions, including the physiological pH of 7.4. Localized pH in an infection is often lower than the physiological pH, and may be as low as 5.5 (Radovic-Moreno et al., 2012). Additionally, pH varies among organs (Radovic-Moreno et al., 2012). For example, pH in the bladder or on the skin is found to be between 4.5 and 8.0, or 4.0 and 5.5, respectively (Radovic-Moreno et al., 2012). […] The activity of all biaryl compounds is enhanced by at least four- to eight-fold with reduction in pH from 7.4 to 5.5.
Water soluble sodium and lithium salts of C59 (C59Na and C59Li) and their antimicrobial activity against six MRSA strains are reported above. A sodium salt of C58 (C58Na) was prepared and evaluated efficacy of this compound against these six MRSA strains. […] The poor activity of C58Na may be a result of poor stability of C58Na compared with C59Na and C59Li.

[17] = tested on: MRSA strain USA 300; test: Growth curves (OD650, 18-h), MRSA USA 300; assay type: cell-based, Staphylococcus aureus; details: stationary phase USA 300, 18-h, compared with non-treated control
Procedure: The rate of bacterial growth in presence of antimicrobial candidates, C58, C59, C59Na, or 4-76, was performed using stationary phase MRSA, USA 300 and SA LL06, or S. epidermidis, M0881, and compared with SoC antimicrobial, vancomycin. In addition, these growth rates were compared with the kill kinetics described earlier (FIGS. 4 & 5). […] A reduction in bacterial growth rate, represented by a lower absorbance at OD650, can be observed with C59 and C59Na at concentrations as low as 0.125×MIC compared with non-treated control. […] However, in the kill kinetics experiments, vancomycin fails to eradicate stationary phase MRSA at concentrations up to 2×MIC. This anomaly can be explained by the different experimental conditions between the kill kinetics and growth curve experiments; bacterial samples are grown with constant shaking on an orbital shaker for a kill kinetics experiment but not for a growth curve experiment.
Finally, the antimicrobial efficacy of enantiomers of compound 4-76 were evaluated against log-phase MRSA strain USA 300, as described earlier.

[18] = tested on: MRSA strain USA300; test: Kill kinetics with planktonic log-phase MRSA; assay type: cell-based, Staphylococcus aureus; details: log-phase USA300, 24 hours
[19] = tested on: MRSA strains USA300 and SALL06; test: Kill kinetics with stationary-phase MRSA; assay type: cell-based, Staphylococcus aureus; details: stationary-phase USA300 and SALL06, up to 24 hours
[20] = tested on: seven S. pyogenes strains; test: MIC/MBC against panel of S. pyogenes strains; assay type: cell-based, Streptococcus pyogenes; details: range over seven S. pyogenes strains
Procedure: The activity of compounds against Gram-positive pathogens, S. pyogenes and S. pneumoniae, identified through the preliminary screen (FIG. 15) was evaluated against a panel of these pathogens.

[21] = tested on: 38 MRSA strains; details: MH broth
[22] = tested on: erythrocytes; details: 50 μg/mL, two hour incubation; cited from earlier work
[23] = Rhodococcus (subgen. Prescottella) equi, strain 701+
[24] = Rhodococcus (subgen. Prescottella) equi, strain 701−
[25] = Rhodococcus (subgen. Prescottella) equi, strain 703
[26] = Rhodococcus (subgen. Prescottella) equi, strain 5331
[27] = 24-h incubation, non-linear curve fit

## COc1c(C)cc(O)c(-c2c(O)ccc3ccccc23)c1C
other
  melting point: 190 to 191 °C

## C[C@@H]1[C@H](O)[C@@H](C)/C=C/C=C/C=C/C=C/C=C/C=C/C=C/[C@H](O[C@@H]2O[C@H](C)[C@@H](O)[C@H](N)[C@@H]2O)C[C@@H]2O[C@](O)(C[C@@H](O)C[C@@H](O)[C@H](O)CC[C@@H](O)C[C@@H](O)CC(=O)O[C@H]1C)C[C@H](O)[C@H]2C(=O)O [Amphotericin B, reference compound]
[1]; sheep, 1 h
  concentration resulting in 100% hemolysis: 8000 ng/mL
  onset of hemolysis: 2 µg/mL
[2]; human, 24 h
  Fibroblasts LD50: 2.2 µg/mL
[3]; human, 24 h
  16HBE LD50: 12.6 µg/mL

## Oc1c(Br)cc(Br)cc1-c1cc(Br)cc(Br)c1O [C58, bromophene]
[4]
  concentration that completely eradicates bacteria in a biofilm: 16 µg/mL
[5]
  membrane disruption (DiSC3(5) fluorescence): positive membrane disruption
[1]; sheep, 1 h
  onset of hemolysis: > 64 µg/mL
[1]; sheep, 18 h
  onset of hemolysis: 16 to 20 µg/mL
[6]
  LD50 (inhibitory concentration at median cell survival): 60 µg/mL
[7]; Enterococcus faecalis
  MBC: 12 µg/mL (≈ 23.9 µM)
  MIC: 6 µg/mL (≈ 12 µM)
[7]; strain 51575
  MBC: 12 µg/mL (≈ 23.9 µM)
  MIC: 6 µg/mL (≈ 12 µM)
[8]; [23]
  MBC: 4 µg/mL (≈ 7.97 µM)
  MIC: 1 µg/mL (≈ 1.99 µM)
[8]; [24]
  MBC: 8 µg/mL (≈ 15.9 µM)
  MIC: 1 µg/mL (≈ 1.99 µM)
[8]; [25]
  MBC: 8 µg/mL (≈ 15.9 µM)
  MIC: 0.5 µg/mL (≈ 0.996 µM)
[8]; [26]
  MBC: 4 µg/mL (≈ 7.97 µM)
  MIC: 1 µg/mL (≈ 1.99 µM)
[9]; Staphylococcus epidermidis
  MIC90: 2 µg/mL (≈ 3.99 µM)
[9]; Staphylococcus epidermidis, read-out: MBC90
  MBC: 8 µg/mL (≈ 15.9 µM)
[10]
  lowest concentration with reduction in bacterial growth rate: 0.125 ×MIC
[11]
  A549 LD50: 120 µM
[12]
  H460 LD50: 42 µM
[13]
  H2122 LD50: 98 µM
[14]
  H2073 LD50: 32 µM
[15]
  MIC90: 2 µg/mL (≈ 3.99 µM)
[15]; read-out: MBC90
  MBC: 4 µg/mL (≈ 7.97 µM)

## [Na+].[Na+].[O-]c1c(Cl)cc(Cl)cc1-c1cc(Cl)cc(Cl)c1[O-] [C59Na]
[16]
  activity in the absence of DMSO versus with 2.5% DMSO: at least comparable activity
  antimicrobial activity (MIC and MBC) compared to the parent compound: enhanced activity; also recorded: superior activity over C59
[3]; [27]
  16HBE LD50: 30 µg/mL
[7]; strain 49532
  MBC: 24 µg/mL
  MIC: 12 µg/mL
[7]; strain 51575
  MBC: 24 µg/mL
  MIC: 12 µg/mL
[8]; strain 701+
  MBC: 16 µg/mL
  MIC: 2 µg/mL
[8]; strain 701−
  MBC: 32 µg/mL
  MIC: 8 µg/mL
[8]; strain 703
  MBC: 8 µg/mL
  MIC: 1 µg/mL
[8]; strain 5331
  MBC: 8 µg/mL
  MIC: 2 µg/mL
[17]
  lowest concentration with reduction in bacterial growth rate (lower OD650): 0.125 ×MIC

## Oc1c(Cl)cc(Cl)cc1-c1cc(Cl)cc(Cl)c1O [C59]
[18]
  concentration of complete killing: 8 µg/mL
  dose response of bacterial eradication: dose-dependent manner
[18]; compared with untreated bacteria
  lowest concentration with reduction in bacterial burden: 0.5 µg/mL
[19]
  eradication of stationary-phase bacteria: continues to eradicate bacteria
[6]
  LD50 (inhibitory concentration at median cell survival): 40 µg/mL
[7]; strain 49532
  MBC: 16 µg/mL (≈ 49.4 µM)
  MIC: 8 µg/mL (≈ 24.7 µM)
[7]; strain 51575
  MBC: 16 µg/mL (≈ 49.4 µM)
  MIC: 8 µg/mL (≈ 24.7 µM)
[8]; strain 701+
  MBC: 4 µg/mL (≈ 12.3 µM)
  MIC: 2 µg/mL (≈ 6.17 µM)
[8]; strain 701−
  MBC: 16 µg/mL (≈ 49.4 µM)
  MIC: 2 µg/mL (≈ 6.17 µM)
[8]; strain 703
  MBC: 8 µg/mL (≈ 24.7 µM)
  MIC: 2 µg/mL (≈ 6.17 µM)
[8]; strain 5331
  MBC: 4 µg/mL (≈ 12.3 µM)
  MIC: 2 µg/mL (≈ 6.17 µM)
[9]; 21 S. epidermidis strains
  MBC90: 12 µg/mL (≈ 37 µM)
  MIC90: 4 µg/mL (≈ 12.3 µM)
[20]
  MBCs: 12 to 24 µg/mL
  MICs: 2 to 12 µg/mL
[17]
  lowest concentration with reduction in bacterial growth rate (lower OD650): 0.125 ×MIC
[10]
  lowest concentration with reduction in bacterial growth rate: 0.125 ×MIC
[11]
  A549 LD50: 123 µM
[12]
  H460 LD50: 37 µM
[13]
  H2122 LD50: 91 µM
[14]
  H2073 LD50: 43 µM
[21]
  MBC90: 6 µg/mL (≈ 18.5 µM)
  MIC90: 2 µg/mL (≈ 6.17 µM)

## Gramicidin D [reference compound]
[1]; 1-h incubation
  concentration resulting in 100% hemolysis: 48000 ng/mL
  onset of hemolysis: 2 µg/mL
[2]; [27]
  Fibroblasts LD50: 3.9 µg/mL
[3]; [27]
  16HBE LD50: 20.5 µg/mL
[22]
  hemolysis: 60%
